Source: BigSolDB 2.1

Nc1ccc(S(=O)(=O)Nc2ncccn2)cc1
solubility (mole fraction)
Details | 278.15 K | 283.15 K | 288.15 K | 293.15 K | 298.15 K | 303.15 K | 308.15 K | 313.15 K | 318.15 K
in ethylene glycol | 0.00034 | 0.000379 | 0.000413 | 0.00047 | 0.000532 | 0.000575 | 0.000637 | 0.000694 | 0.000752
in water | 1.61e-06 | 2.01e-06 | 2.86e-06 | 3.8e-06 | 4.81e-06 | 6.49e-06 | 8.69e-06 | 1.14e-05 | 1.22e-05
